According to patent US5534498A, “Trypsin inhibitors” (Corvas International, Inc., priority 1993, dated 1996):
Residues, ends and D or L forms follow the SMILES beside them. *: point of attachment. Boc = CC(C)(C)OC(=O)*

Assays:
Assay type in all cases: biochemical
[1] = molecular target: bovine and human pancreatic trypsin; assay: Potency: determination of inhibitor constant Ki against trypsin (S-2222 substrate, Dixon plot); conditions: 37° C., TBS pH 7.4, 15 min preincubation, read-out: Ki For Peptide Aldehydes Against Trypsin
Experimental: The potency and specificity of the compounds of the present invention are determined by in vitro assay methods well known in the art. […] Specifically, the inhibitor constant, Ki, of the compounds can be determined by the method of Dixon, Biochem. J. 55:170 (1953). The specificity is assessed by determination of the concentration, IC50, of compound required to give 50% inhibition of the enzymatic activity of the coagulation enzymes, kallikrein, factor XIa, factor VIIa, factor Xa, thrombin; the fibrinolysis enzymes, plasmin, tissue plasminogen activator (tPA), and urokinase (UK), and the anticoagulation enzyme, protein C. Specificity is found when the concentration of compound giving 50% inhibition of trypsin is low relative to the concentration required to give like inhibition of the other enzymes.
Enzyme activity was determined using as substrate S-2222 [N-benzoyl-L-isoleucyl-L-glutamyl-glycyl-L-arginine-p-nitroanilide hydrochloride where glutamyl side chain is 50% carboxylic acid and 50% methyl ester], purchased from Kabi Diagnostica. The substrate was made up in deionized water prior to use.
A 96-well microtiter plate was prepared for use in the assay by incubating each well with 300 μL of 1% bovine serum albumin (in deionized water) for 30 minutes at 37° C., and washing three times with deionized water.
To each well was added 50 μL TBS (0.1M Tris, 0.14M NaCl, pH 7.4), 50 μL 2.5 nM trypsin and 50 μL peptide aldehyde in TBS or TBS alone. After incubating for 15 minutes at 37° C., 50 μL of S-2222 (at 37° C.) at a specified concentration was added to each well. After mixing, the rate of substramte turnover at 37° C. was measured for 30 minutes at 405 nm (generation of p-nitroaniline). The initial S-2222 concentrations in the assay mixture were 0.45, 0.23, 0.11, 0.056, and 0.028 mM.
Ki was determined graphically using a Dixon plot, as described in Dixon, Biochem. J. 55:170 (1953).

Factor VIIa:rTF complex = molecular target: T1, Factor VIIa:rTF complex (Homo sapiens, UniProt P08709); assay: Factor VIIa assay (S-2288 substrate)
T1 construct: 2.5 ml 400 nMhuman Factor VIIa
Experimental: (§1) The specificity of the peptide aldehydes (8 through 12) was determined in vitro by measurement of their IC50 against other enzymes involved in hemostasis. A specific concentration of enzyme and its substrate were challenged with varying concentrations of inhibitor. IC50 is that concentration of inhibitor giving 50% inhibition of substrate turnover, under the assay conditions. Specific assay procedures used are presented below.
(§2) 96-well microtiter plates were prepared for use in these assays by incubating each well with 300 μL 1% bovine serum albumin (in deionized water) for 30 minutes at 37° C., then washing three times with deionized water.
Enzyme activity was determined using as substrate, S-2288 [D-isoleucyl-L-prolyl-L-arginine-p-nitroanilide dihydrochloride], purchased from Kabi Diagnostica. The substrate was made up in deionized water prior to use.
Both solutions were then incubated for 30 minutes at room temperature before use in the assay.
The assay was run by combining in appropriate wells 50 μL inhibitor in TBS or TBS alone and 100 μL of Factor VIIa:rTF complex or background control, incubating this mixture for 30 minutes at room temperature, adding 50 μL of 2 mM S-2288, incubating for an additional 30 to 60 minutes at room temperature, then reading the absorbance of the wells at 405 nm on a microtiter plate reader set with background substraction at 650 nm.

bovine thrombin = molecular target: T2, bovine thrombin (Bos taurus, UniProt P00735); assay: Thrombin assay (S-2238 substrate)
T2 construct: 50 μL 20 nM bovine thrombin
Experimental: as §1, §2
Enzyme activity was determined using as substrate, S-2238 [D-phenylalanyl-L-pipecolyl-L-arginine-p-nitroanilide dihydrochloride], purchased from Kabi Diagnostica. The substrate was made up in deionized water prior to use.
The assay was run by combining in appropriate wells 50 μL TBS and 50 μL inhibitor in TBS or TBS alone and 50 μL 20 nM bovine thrombin (or TBS as background control), incubating this mixture for 30 minutes at room temperature, adding 50 μL 1 mM S-2238, incubating for an additional 30 minutes at room temperature, then reading the absorbance of the wells at 405 nm on a microtiter plate reader set with background substraction at 650 nm.

[2] = molecular target: T3, Activated human Protein C (Homo sapiens, UniProt P04070); assay: Protein C assay (Pefachrome PC substrate)
T3 construct: from tissue
Experimental: as §1, with “IC50 is that concentration of inhibitor giving 50% inhibition of substrate turnover, under the assay conditions.” left out
as §2
Enzyme activity was determined using as substrate, Pefachrome PC [δ-carbobenzoloxy-D-lysyl-L-prolyl-L-arginine-p-nitroanilide], purchased from Centerchem, Inc. The substrate was made up in deionized water prior to use. Protac used to activate Protein C was obtained from American Diagnostics.

[3] = molecular target: recombinant tissue plasminogen activator (Homo sapiens, UniProt P00750); assay: Tissue plasminogen activator assay (S-2288 substrate)
Experimental: as §1, with “IC50 is that concentration of inhibitor giving 50% inhibition of substrate turnover, under the assay conditions.” left out
as §2
(§3) The substrate was made up in deionized water prior to use.

bovine trypsin = molecular target: T4, bovine trypsin (Bos taurus, UniProt P00760); assay: Trypsin assay, IC50 (S-2222 substrate)
T4 sequence (P00760 24-246): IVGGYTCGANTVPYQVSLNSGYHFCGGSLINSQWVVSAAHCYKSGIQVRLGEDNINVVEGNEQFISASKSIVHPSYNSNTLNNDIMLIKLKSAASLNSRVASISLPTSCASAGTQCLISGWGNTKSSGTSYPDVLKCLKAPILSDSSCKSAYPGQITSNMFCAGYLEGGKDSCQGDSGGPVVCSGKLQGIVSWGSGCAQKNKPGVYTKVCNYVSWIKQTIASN
Experimental: as §1, with “IC50 is that concentration of inhibitor giving 50% inhibition of substrate turnover, under the assay conditions.” left out
as §2, §3

plasmin = plasmin (Homo sapiens, UniProt P00747); assay: Plasmin assay (S-2251 substrate); parameters: 50 μL 25 nM human plasmin
Experimental: as §1, with “IC50 is that concentration of inhibitor giving 50% inhibition of substrate turnover, under the assay conditions.” left out
as §2, §3

[4] = 30 min preincubation, room temperature, tested 0.025-25 μM, Inact. = no inhibition at highest concentration
[5] = [IC50 for Trypsin/IC50 for other enzyme]×100, lower = more trypsin selective

plasmin, sequence (P00747 581-810 limits assumed): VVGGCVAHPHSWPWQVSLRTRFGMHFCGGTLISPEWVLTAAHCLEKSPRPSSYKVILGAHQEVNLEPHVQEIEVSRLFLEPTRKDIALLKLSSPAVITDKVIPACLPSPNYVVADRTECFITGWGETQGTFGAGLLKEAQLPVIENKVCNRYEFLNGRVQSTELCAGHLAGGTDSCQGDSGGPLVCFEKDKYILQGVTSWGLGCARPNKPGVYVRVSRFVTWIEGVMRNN
plasmin, sequence (P00747 97-580 partner limits assumed): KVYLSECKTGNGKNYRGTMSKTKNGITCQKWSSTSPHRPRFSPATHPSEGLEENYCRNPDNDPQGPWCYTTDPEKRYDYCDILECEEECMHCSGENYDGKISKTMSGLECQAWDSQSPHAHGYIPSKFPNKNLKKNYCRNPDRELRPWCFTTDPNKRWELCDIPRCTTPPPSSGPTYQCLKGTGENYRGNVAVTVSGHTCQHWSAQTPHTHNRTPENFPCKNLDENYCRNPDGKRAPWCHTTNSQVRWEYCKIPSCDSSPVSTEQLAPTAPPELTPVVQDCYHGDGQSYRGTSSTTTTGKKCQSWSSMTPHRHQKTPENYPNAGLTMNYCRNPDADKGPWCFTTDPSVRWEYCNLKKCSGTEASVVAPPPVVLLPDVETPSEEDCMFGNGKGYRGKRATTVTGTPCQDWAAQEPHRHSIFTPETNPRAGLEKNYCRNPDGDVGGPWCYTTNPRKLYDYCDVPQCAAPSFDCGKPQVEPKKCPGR
T3 sequence (P04070 212-461 limits assumed): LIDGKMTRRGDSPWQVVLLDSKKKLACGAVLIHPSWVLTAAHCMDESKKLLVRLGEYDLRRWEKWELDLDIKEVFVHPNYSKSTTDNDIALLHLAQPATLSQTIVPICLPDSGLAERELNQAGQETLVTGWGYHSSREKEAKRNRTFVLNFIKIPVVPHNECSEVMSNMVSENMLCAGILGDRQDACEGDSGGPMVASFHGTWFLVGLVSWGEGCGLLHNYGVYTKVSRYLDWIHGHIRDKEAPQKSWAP
T3 sequence (P04070 43-197 partner limits assumed): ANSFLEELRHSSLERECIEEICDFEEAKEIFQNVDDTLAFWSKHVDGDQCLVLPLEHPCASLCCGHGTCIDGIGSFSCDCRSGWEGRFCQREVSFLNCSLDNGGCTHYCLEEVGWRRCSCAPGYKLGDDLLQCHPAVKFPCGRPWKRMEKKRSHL
T1 sequence (P08709 213-466 limits assumed): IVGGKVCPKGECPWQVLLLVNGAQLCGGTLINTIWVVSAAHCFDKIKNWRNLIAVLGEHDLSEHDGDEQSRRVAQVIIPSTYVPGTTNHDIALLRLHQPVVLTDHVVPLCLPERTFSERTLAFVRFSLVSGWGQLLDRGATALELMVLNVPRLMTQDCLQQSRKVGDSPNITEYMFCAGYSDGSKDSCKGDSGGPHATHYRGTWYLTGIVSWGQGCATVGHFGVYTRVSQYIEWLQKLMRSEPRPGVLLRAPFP
T1 sequence (P08709 61-212 partner limits assumed): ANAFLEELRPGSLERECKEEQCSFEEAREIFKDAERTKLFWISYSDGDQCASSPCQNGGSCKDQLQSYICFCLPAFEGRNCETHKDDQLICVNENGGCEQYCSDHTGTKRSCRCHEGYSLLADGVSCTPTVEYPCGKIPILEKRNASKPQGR
T1 sequence (P13726 33-295 partner): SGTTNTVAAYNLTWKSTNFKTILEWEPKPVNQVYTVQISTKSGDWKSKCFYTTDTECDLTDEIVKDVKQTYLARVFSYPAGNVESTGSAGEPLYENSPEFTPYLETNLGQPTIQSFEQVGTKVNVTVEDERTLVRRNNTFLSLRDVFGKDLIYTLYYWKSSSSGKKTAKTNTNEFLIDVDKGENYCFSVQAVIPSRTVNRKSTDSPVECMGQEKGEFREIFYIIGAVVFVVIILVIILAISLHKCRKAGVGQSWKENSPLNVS
recombinant tissue plasminogen activator, sequence (P00750 36-562): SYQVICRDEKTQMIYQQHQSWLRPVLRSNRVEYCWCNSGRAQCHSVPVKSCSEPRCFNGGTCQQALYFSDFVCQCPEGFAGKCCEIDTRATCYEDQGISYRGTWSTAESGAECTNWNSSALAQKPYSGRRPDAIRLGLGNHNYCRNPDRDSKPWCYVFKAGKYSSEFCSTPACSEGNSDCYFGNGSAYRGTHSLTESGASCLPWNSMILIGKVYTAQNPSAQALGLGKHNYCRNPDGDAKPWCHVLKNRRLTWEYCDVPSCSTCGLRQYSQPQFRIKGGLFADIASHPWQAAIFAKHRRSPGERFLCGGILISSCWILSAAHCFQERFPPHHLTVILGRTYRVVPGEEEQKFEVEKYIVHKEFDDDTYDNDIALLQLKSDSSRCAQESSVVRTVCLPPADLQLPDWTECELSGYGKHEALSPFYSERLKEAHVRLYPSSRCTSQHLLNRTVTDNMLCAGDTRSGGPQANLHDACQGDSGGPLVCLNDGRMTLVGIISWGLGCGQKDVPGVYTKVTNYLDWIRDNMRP

In the case of CC(C)(C)OC(=O)N[C@@H](CC(=O)O)C(=O)N1CCC[C@H]1C(=O)N[C@H](C=O)CCCNC(=N)N [Compound 9, N-t-butyloxycarbonyl-L-Asp-L-Pro-L-argininal] (Boc-Asp-Pro-Arg-aldehyde), the Ki [1] is reported as 0.45 nM, the “IC50 VIIA” value (Factor VIIa:rTF complex; [4]) is reported as “Inact” and the “Calculated % Selectivity VIIa” value (Factor VIIa:rTF complex; [5]) is reported as 0%. For the same compound, the IC50 (bovine thrombin; [4]) was 17000 nM, the “Calculated % Selectivity Thrombin” value (bovine thrombin; [5]) was 0.08% and the “IC50 Protein C” value [2, 4] was “Inact”. For the same compound, the “Calculated % Selectivity Protein C” value [2, 5] was 0%, the “IC50 tPA” value [3, 4] was “Inact” and the “Calculated % Selectivity tPA” value [3, 5] was 0%. For the same compound, the IC50 (bovine trypsin; 30 min preincubation, room temperature, tested 0.025-25 μM) was 14 nM, the “Calculated % Selectivity Trypsin” value (bovine trypsin; trypsin relative to itself (reference, 100 by definition)) was 100% and the IC50 (plasmin; [4]) was 1400 nM. The “Calculated % Selectivity Plasmin” value (plasmin; [5]) was 1%.
